Measurements published in patent publication EP0345251B1 (priority 1986, dated 1988).

Assays:
[1] = test system: Lewis lung carcinoma (3LL); experiment: Lewis lung carcinoma (3LL): primary tumour and lung secondaries; format: in vivo, C₅₇Bl mice; conditions: 3LL in flank; mitozantrone 3.0 mg/kg for 5 days, day 5 to 9 after implantation
Experimental: Antitumour effects. Male Swiss Schneider mice of 27g body weight were used for the sarcoma S180 experiments: female C₅₇Bl mice of 20g body weight were used for the B16 melanoma experiments; male BDF₁ mice of 30g body weight were used for the L1210 leukaemia experiments; and C₅₇Bl mice of 20g body weight were used for the Lewis lung experiments.
Lewis lung (3LL). This tumour was prepared for inoculation in a manner identical to that used for the S180 sarcoma.
This tumour metastasizes to the lungs when implanted into the flanks of mice. […]

[2] = Blood counts (Coulter counter) after mitozantrone, with and without Cronassial; format: in vivo; conditions: blood by cardiac puncture
[3] = test system: leukaemia L1210; experiment: Antitumour activity against leukaemia L1210 (survival); format: in vivo, BDF₁ mice; conditions: in combination CRON 200 mg/kg, CR same as MTZ
Experimental: Antitumour effects. Male Swiss Schneider mice of 27g body weight were used for the sarcoma S180 experiments: female C₅₇Bl mice of 20g body weight were used for the B16 melanoma experiments; […]; and C₅₇Bl mice of 20g body weight were used for the Lewis lung experiments.
L1210. Spleens were removed from animals 7 days after inoculation of L1210 cells and these spleens were finely minced with 1:100 isotonic saline. 0.1 ml of this spleen and leukaemia L1210 cell suspension was then injected subcutaneously into the flank of each BDF₁.

[4] = Mitozantrone toxicity in mice bearing S180, with and without Cronassial; format: in vivo, Male Swiss Schneider mice; conditions: chronic, host SN (+S180), MTZ 5 mg/kg ip days 3.4.5
Experimental: (§1) Toxicity acute and chronic. Male Swiss Schneider mice with a body weight of 25-30g were used for these experiments. Mice were usually kept in groups of not more than 8 in standard cages. Food and water were supplied ad libidum. The animals were kept in experimental rooms under closely controlled conditions. They were weighed daily. For acute vincristine toxicity in chicks, 48 hour old SPF chicks were used.
Sarcoma S180. This tumour has been transplanted in the same strain of mouse for more than 10 years.
Transplantation was done by subcutaneous inoculation of 0.1 ml of a tumour mash made by finely mincing viable tumour tissue and passing it repeatedly through a 26 gauge needle into a sterile Petri dish. 0.1 ml of penicillin (20,000 m/ml) and streptomycin (20,000 m/ml) were added to the mash, as well as neomycin (5 mgs).
(§2) Mitozantrone was made up in an appropriate manner. It was given in a volume of 0.2ml when the injections were given intraperitoneally but when given by another route, the volumes given were indicated in the appropriate Table.

[5] = Mitozantrone toxicity in mice, with and without Cronassial; format: in vivo, Male Swiss Schneider mice; conditions: host SN
Experimental: as §1
Cronassial®. A solution of this substance, which is a mixture of four gangliosides, was prepared by the addition of a volume of sterile distilled water sufficient to give a concentration of 200 mg/kg in a volume of 0.2 ml. This dose was given to mice of approximately 20g.
as §2

[6] = L1210, host BDF1, MTZ 5 mg/kg ip days 0.1.2
[7] = L1210, host BDF1, MTZ 5 mg/kg ip days 1.2.3
[8] = chronic, first pair of Table 4: MTZ 5 ip days 1,2, in combination CRON 200 same time as MTZ
[9] = chronic, second series of Table 4: MTZ 5 ip days 1,2, in combination CRON 200 same time as MTZ
[10] = M, MTZ 4 mg/kg iv x 3, days 1.2.3, in combination CRON 200 mg/kg, mixed as one injection

O=C1c2c(O)ccc(O)c2C(=O)c2c(NCCNCCO)ccc(NCCNCCO)c21 [MTZ, mitozantrone]
mice died by day 14 [1]: 7/8 | MEAN VALUES OF INDIVIDUAL ANIMALS RBC x 10¹²/l ([2]; Day 5., controls 7.9): 7.3 x 10¹²/l | MEAN VALUES OF INDIVIDUAL ANIMALS WBC X 10⁹/l ([2]; Day 5, controls 9.3): 3.5 X 10⁹/l | MEAN VALUES OF INDIVIDUAL ANIMALS PLATELETS x 10⁹/l ([2]; Day 5, controls 632): 631 x 10⁹/l | MEAN VALUES OF INDIVIDUAL ANIMALS PLATELETS x 10⁹/l ([2]; Day 7): 845 x 10⁹/l | MEAN VALUES OF INDIVIDUAL ANIMALS RBC x 10¹²/l ([2]; Day 7): 7.0 x 10¹²/l | MEAN VALUES OF INDIVIDUAL ANIMALS WBC X 10⁹/l ([2]; Day 7): 2.2 X 10⁹/l | MEAN VALUES OF INDIVIDUAL ANIMALS WBC X 10⁹/l ([2]; Day 8, controls 5.2): 3.2 X 10⁹/l | MEAN VALUES OF INDIVIDUAL ANIMALS RBC x 10¹²/l ([2]; Day 8, controls 7.2): 7.1 x 10¹²/l | MEAN VALUES OF INDIVIDUAL ANIMALS PLATELETS x 10⁹/l ([2]; Day 8, controls 649): 1058 x 10⁹/l | SURVIVAL (mean days) [3, 6]: 6.14 days | SURVIVORS No. at 60 d [3, 6]: 1/8 | SURVIVAL (mean days) [3, 7]: 17.1 days | SURVIVORS No. at 60 d [3, 7]: 2/8 | SURVIVORS No. at 60 d ([3]; L1210, host BDF1, MTZ 5 mg/kg ip days 3.4.5, CMC-controls 0/8): 0/8 | SURVIVAL (mean days) ([3]; L1210, host BDF1, MTZ 5 mg/kg ip days 3.4.5, CMC-controls 8.7): 25.2 days | SURVIVORS No. at 60 d ([3]; L1210, host DBA, MTZ 5 mg/kg ip days 2.3.4, CMC-controls 0/6): 0/6 | SURVIVAL (mean days) ([3]; L1210, host DBA, MTZ 5 mg/kg ip days 2.3.4, CMC-controls 7.2): 16.8 days | SURVIVORS No.at 30 d [4]: 0/8 | SURVIVAL (mean days) ([4]; in combination CRON 200 mg/kg, CR same time MTZ): 8.8 days | SURVIVAL (mean days) [5, 8]: 9 days | SURVIVORS No.at 30 d [5, 8]: 0/6 | SURVIVAL (mean days) [5, 9]: 11 days | SURVIVORS No.at 30 d [5, 9]: 0/6 | SURVIVAL (mean days) [5, 10]: 7.8 days | SURVIVORS d.30 [5, 10]: 0/5
